Measured values reported in patent US11034715B2, “Ectonucleotidase inhibitors and methods of use thereof” (Calithera Biosciences, Inc., priority 2016, dated 2021).

Target: recombinant CD73 (Homo sapiens (Human), UniProt P21589)
Test: Inhibition of the CD73 enzyme in vitro (soluble recombinant CD73, AMP, Malachite Green)
Type: biochemical
Conditions: recombinant CD73 0.5 nM, AMP 50 μM, 30 minutes at room temperature
Method: The concentration of inorganic phosphate was determined using a phosphate standard curve.

recombinant CD73, sequence (P21589 27-547): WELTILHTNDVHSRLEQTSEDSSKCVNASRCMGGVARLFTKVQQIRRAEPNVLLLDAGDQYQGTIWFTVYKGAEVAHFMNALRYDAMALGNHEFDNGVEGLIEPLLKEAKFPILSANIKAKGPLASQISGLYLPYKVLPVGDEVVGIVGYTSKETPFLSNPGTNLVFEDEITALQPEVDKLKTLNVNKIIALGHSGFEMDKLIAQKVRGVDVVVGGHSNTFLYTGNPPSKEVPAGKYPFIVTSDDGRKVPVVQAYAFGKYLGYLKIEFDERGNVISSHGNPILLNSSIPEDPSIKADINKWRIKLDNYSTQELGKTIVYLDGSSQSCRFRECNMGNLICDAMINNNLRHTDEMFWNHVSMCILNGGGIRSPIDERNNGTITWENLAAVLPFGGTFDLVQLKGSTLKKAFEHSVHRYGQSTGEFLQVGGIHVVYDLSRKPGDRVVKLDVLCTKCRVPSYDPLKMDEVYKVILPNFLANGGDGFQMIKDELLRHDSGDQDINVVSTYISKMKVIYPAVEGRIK

How did the IC50 turn out when `Nc1nc(Cl)nc2c1ncn2[C@@H]1O[C@H](COC(Cc2ccc(OCC(F)(F)F)cc2)(C(=O)O)C(=O)O)[C@@H](O)[C@@H]1F` [compound 89, 2-(((2R,3R,4S,5R)-5-(6-amino-2-chloro-9H-purin-9-yl)-4-fluoro-3-hydroxytetrahydrofuran-2-yl)methoxy)-2-(4-(2,2,2-trifluoroethoxy)benzyl) malonic acid] was run?
Its IC50 is 43 nM.

For `CNC(=O)c1ccc(CC(OC[C@H]2O[C@@H](n3cnc4c(N)nc(Cl)nc43)[C@@H](F)[C@@H]2O)(C(=O)O)C(=O)O)cc1` [compound 98, 2-(((2R,3R,4S,5R)-5-(6-amino-2-chloro-9H-purin-9-yl)-4-fluoro-3-hydroxytetrahydrofuran-2-yl)methoxy)-2-(4-(methylcarbamoyl)benzyl) malonic acid], which IC50 is on record?
Its IC50 is 512 nM.

With `Nc1nc(Cl)nc2c1ncn2[C@@H]1O[C@H](COC(Cc2ccc(OCc3ccccc3)cc2)(C(=O)O)C(=O)O)[C@@H](O)[C@@H]1F` [compound 65, 2-(((2R,3R,4S,5R)-5-(6-amino-2-chloro-9H-purin-9-yl)-4-fluoro-3-hydroxytetrahydrofuran-2-yl)methoxy)-2-(4-(benzyloxy)benzyl)malonic acid] as the compound, how does the IC50 read?
Its IC50 is 31 nM.

`Nc1nc(Cl)nc2c1ncn2[C@@H]1O[C@H](COC(Cc2ccc3oc(C(=O)O)cc3c2)(C(=O)O)C(=O)O)[C@@H](O)[C@@H]1F` [compound 88, 2-(((2R,3R,4S,5R)-5-(6-amino-2-chloro-9H-purin-9-yl)-4-fluoro-3-hydroxytetrahydro-furan-2-yl)methoxy)-2-((2-carboxybenzofuran-5-yl)methyl)malonic acid] was tested. Which IC50 did it give?
Its IC50 is 238 nM.

With `Cc1nnc(-c2ccc(CC(OC[C@H]3O[C@@H](n4cnc5c(N)nc(Cl)nc54)[C@@H](F)[C@@H]3O)(C(=O)O)C(=O)O)cc2)o1` [compound 94, 2-(((2R,3R,4S,5R)-5-(6-amino-2-chloro-9H-purin-9-yl)-4-fluoro-3-hydroxytetrahydrofuran-2-yl)methoxy)-2-(4-(5-methyl-1,3,4-oxadiazol-2-yl)benzyl) malonic acid] as the compound, how does the IC50 read?
The IC50 was 906 nM.

For `Nc1nc(Cl)nc2c1ncn2[C@@H]1O[C@H](COC(Cc2ccc(OCC(=O)O)cc2)(C(=O)O)C(=O)O)[C@@H](O)[C@@H]1F` [compound 92, 2-(((2R,3R,4S,5R)-5-(6-amino-2-chloro-9H-purin-9-yl)-4-fluoro-3-hydroxytetrahydrofuran-2-yl)methoxy)-2-(4-(carboxymethoxy)benzyl) malonic acid], which IC50 is on record?
Its IC50 is 172 nM.

For `Nc1nc(Cl)nc2c1ncn2[C@@H]1O[C@H](COC(Cc2ccc(O)cc2)(C(=O)O)C(=O)O)[C@@H](O)[C@@H]1F` [compound 66, 2-(((2R,3R,4S,5R)-5-(6-amino-2-chloro-9H-purin-9-yl)-4-fluoro-3-hydroxytetrahydrofuran-2-yl)methoxy)-2-(4-hydroxybenzyl) malonic acid], which IC50 is on record?
Its IC50 is 133 nM.

With `Nc1nc(Cl)nc2c1ncn2[C@@H]1O[C@H](COC(Cc2ccc(C(=O)O)c(F)c2)(C(=O)O)C(=O)O)[C@@H](O)[C@@H]1F` [compound 58, 2-(((2R,3R,4S,5R)-5-(6-amino-2-chloro-9H-purin-9-yl)-4-fluoro-3-hydroxytetrahydro-furan-2-yl)methoxy)-2-(4-carboxy-3-fluorobenzyl)malonic acid] as the compound, how does the IC50 read?
Its IC50 is 38 nM.

Which IC50 does the source give for `Nc1nc(Cl)nc2c1ncn2[C@@H]1O[C@H](COC(Cc2cccc(-c3nnn[nH]3)c2)(C(=O)O)C(=O)O)[C@@H](O)[C@@H]1F` [compound 53, 2-(3-(1H-tetrazol-5-yl)benzyl)-2-(((2R,3R,4S,5R)-5-(6-amino-2-chloro-9H-purin-9-yl)-4-fluoro-3-hydroxytetrahydrofuran-2-yl)methoxy)malonic acid] here?
The IC50 was 448 nM.

With `Nc1nc(Cl)nc2c1ncn2[C@@H]1O[C@H](COC(Cc2ccccc2)(C(=O)O)C(=O)O)[C@@H](O)[C@@H]1Cl` [compound 146] as the compound, how does the IC50 read?
Its IC50 is 181 nM.

Which IC50 does the source give for `Nc1nc(Cl)nc2c1ncn2[C@@H]1O[C@H](COC(Cc2ccc(C(=O)O)cc2)(C(=O)O)C(=O)O)[C@@H](O)[C@@H]1F` [compound 171] here?
Its IC50 is 114 nM.

`Nc1nc(Cl)nc2c1ncn2[C@@H]1O[C@H](COC(Cc2nc3ccccc3s2)(C(=O)O)C(=O)O)[C@@H](O)[C@@H]1F` [compound 97, 2-(((2R,3R,4S,5R)-5-(6-amino-2-chloro-9H-purin-9-yl)-4-fluoro-3-hydroxytetrahydrofuran-2-yl)methoxy)-2-(benzo[d]thiazol-2-ylmethyl)malonic acid] was tested. Which IC50 did it give?
The IC50 was 3430 nM.

With `C[C@@]1(O)[C@H](O)[C@@H](COC(Cc2ccc(C(=O)O)cc2)(C(=O)O)C(=O)O)O[C@H]1n1cnc2c(N)nc(Cl)nc21` [compound 107] as the compound, how does the IC50 read?
Its IC50 is 42500 nM.

`Nc1nc(Cl)nc2c1ncn2[C@@H]1O[C@H](COC(Cc2nnn[nH]2)(C(=O)O)C(=O)O)[C@@H](O)[C@@H]1F` [compound 50, 2-((1H-tetrazol-5-yl)methyl)-2-(((2R,3R,4S,5R)-5-(6-amino-2-chloro-9H-purin-9-yl)-4-fluoro-3-hydroxytetrahydrofuran-2-yl)methoxy)malonic acid] was tested. Which IC50 did it give?
The IC50 was 1910 nM.

How did the IC50 turn out when `Nc1nc(Cl)nc2c1ncn2[C@@H]1O[C@H](COC(Cc2cc(C(=O)O)no2)(C(=O)O)C(=O)O)[C@@H](O)[C@@H]1F` [compound 83, 2-(((2R,3R,4S,5R)-5-(6-amino-2-chloro-9H-purin-9-yl)-4-fluoro-3-hydroxytetrahydrofuran-2-yl)methoxy)-2-((3-carboxyisoxazol-5-yl)methyl)malonic acid] was run?
Its IC50 is 6440 nM.

Which IC50 does the source give for `Nc1nc(Cl)nc2c1ncn2[C@@H]1O[C@H](COC(Cc2ccccc2)(C(=O)O)C(=O)O)[C@@H](N)[C@H]1O` [compound 51, 2-(((2S,3S,4R,5R)-3-amino-5-(6-amino-2-chloro-9H-purin-9-yl)-4-hydroxytetrahydrofuran-2-yl)methoxy)-2-benzylmalonic acid] here?
The IC50 was 1870 nM.

Which IC50 does the source give for `O=C(O)C(Cc1ccccc1)(OC[C@H]1O[C@@H](n2cnc3c(NCc4ccccc4)nc(Cl)nc32)[C@@H](F)[C@@H]1O)C(=O)O` [compound 28, 2-benzyl-2-(((2R,3R,4S,5R)-5-(6-(benzylamino)-2-chloro-9H-purin-9-yl)-4-fluoro-3-hydroxytetrahydrofuran-2-yl)methoxy)malonic acid] here?
Its IC50 is 2650 nM.

For `Nc1nc(Cl)nc2c1ncn2[C@@H]1O[C@H](COC(Cc2ccc(Cl)cc2F)(C(=O)O)C(=O)O)[C@@H](O)[C@@H]1F` [compound 80, 2-(((2R,3R,4S,5R)-5-(6-amino-2-chloro-9H-purin-9-yl)-4-fluoro-3-hydroxytetrahydrofuran-2-yl)methoxy)-2-(4-chloro-2-fluorobenzyl)malonic acid], which IC50 is on record?
The IC50 was 44 nM.

With `Nc1nc(Cl)nc2c1ncn2[C@@H]1O[C@H](COC(Cc2ccc(-c3cccnc3)cc2)(C(=O)O)C(=O)O)[C@@H](O)[C@@H]1F` [compound 142] as the compound, how does the IC50 read?
Its IC50 is 67 nM.

For `Nc1nc(Cl)nc2c1ncn2[C@@H]1O[C@H](COC(Cc2cnn(Cc3ccccc3)c2)(C(=O)O)C(=O)O)[C@@H](O)[C@@H]1F` [compound 63, 2-(((2R,3R,4S,5R)-5-(6-amino-2-chloro-9H-purin-9-yl)-4-fluoro-3-hydroxytetrahydro-furan-2-yl)methoxy)-2-((1-benzyl-1H-pyrazol-4-yl)methyl)malonic acid], which IC50 is on record?
Its IC50 is 1220 nM.

Same assay, conditions: recombinant CD73 0.5 nM, AMP 50 μM; class symbols (Table 4)

Which IC50 does the source give for `CCOC(=O)C(Cc1ccccc1)(OC[C@H]1O[C@@H](n2cnc3c(NCc4ccccc4)nc(Cl)nc32)[C@H](O)[C@@H]1O)C(=O)OCC` here?
The IC50 was < 1000 nM.
